Test results as given in US20210220374A1, “METHODS OF TREATING TE[…]” (Clarus Therapeutics, Inc., priority 2013, published 2021).

Experiment: Contingency table classification of C(t) acceptance range as surrogate for Cavg
Design: species or system hypogonadal men
Conditions: for Percent of Subjects: Cavg too high & C(t) in range / Percent of Subjects: Cavg too high & C(t) too high / Percent of Subjects: Cavg too low & C(t) in range / Percent of Subjects: Cavg too low & C(t) too low / Percent of Subjects: C(t) in range / Percent of Subjects: C(t) too high / Percent of Subjects: C(t) too low / Percent of Subjects: Cavg in range & C(t) in range / Percent of Subjects: Cavg in range & C(t) too high / Percent of Subjects: Cavg in range & C(t) too low: Cavg 300-1000 ng/dL; for Percent of subjects: Cavg in Range F & C(t) in Range F (total of too high and too low): Cavg 300-1000
Source text: For the contingency table approach, the number and percentage of subjects that fell into each of the following seven categories were enumerated, for each of the candidate time points, and for each candidate target range for Cavg, and for each candidate acceptance range for C(t). • 1. Subjects with Cavg within range and with C(t) within range • 2. Subjects with Cavg below range and with C(t) below range • 3. Subjects with Cavg above range and with C(t) above range • 4. Subjects with Cavg within range but with C(t) below range • 5. Subjects with Cavg within range but with C(t) above range • 6. Subjects with Cavg below range, but with C(t) within range • 7. Subjects with Cavg above range, but with C(t) within range
If one defines a value as being “within range” as positive, and being “outside of range” as negative, then Group 1 is subjects that are “true positives”, Groups 2 and 3 are “true negatives”, groups 4 and 5 are “false negatives”, and groups 6 and 7 are “false positives”. Groups, 1, 2 and 3 represent successful predictions because C(t) is an appropriate surrogate for Cavg; Groups 4, 5, 6 and 7 are prediction failures because C(t) is an inaccurate surrogate for Cavg.
Correlations and contingency table calculations were performed using built-in functions in the Excel module of Microsoft Office 2003 (Redmond, Wash.). Graphs were produced using the built-in charting capabilities of Excel.

[1] = C(6) alternate, C(t) acceptance 250-1700
[2] = targeted Cavg 300-1000 ng/dL, 200 mg T BID as TU

Structure (SMILES): CCCCCCCCCCC(=O)O[C@H]1CC[C@H]2[C@@H]3CCC4=CC(=O)CC[C@]4(C)[C@H]3CC[C@]12C [TU, testosterone undecanoate]
- Percent of Subjects: Cavg too high & C(t) in range (C(4), C(t) acceptance 250-1700): 4.9%
- Percent of Subjects: Cavg too high & C(t) too high (C(4), C(t) acceptance 250-1700): 2.4%
- Percent of Subjects: Cavg too low & C(t) in range (C(4), C(t) acceptance 250-1700): 2.4%
- Percent of Subjects: Cavg too low & C(t) too low (C(4), C(t) acceptance 250-1700): 9.8%
- Percent of subjects: Cavg in Range F & C(t) in Range F (total of too high and too low) (C(4), C(t) acceptance 250-1700): 12.2%
- Percent of Subjects: C(t) in range (C(5), C(t) acceptance 250-1400): 82.9%
- Percent of Subjects: C(t) too high (C(5), C(t) acceptance 250-1400): 4.9%
- Percent of Subjects: C(t) too low (C(5), C(t) acceptance 250-1400): 12.2%
- Percent of Subjects: Cavg in range & C(t) in range (C(5), C(t) acceptance 250-1400): 75.6%
- Percent of Subjects: Cavg in range & C(t) too high (C(5), C(t) acceptance 250-1400): 2.4%
- Percent of Subjects: Cavg in range & C(t) too low (C(5), C(t) acceptance 250-1400): 2.4%
- Percent of Subjects: Cavg too high & C(t) in range (C(5), C(t) acceptance 250-1400): 4.9%
- Percent of Subjects: Cavg too high & C(t) too high (C(5), C(t) acceptance 250-1400): 2.4%
- Percent of Subjects: Cavg too low & C(t) in range (C(5), C(t) acceptance 250-1400): 2.4%
- Percent of Subjects: Cavg too low & C(t) too low (C(5), C(t) acceptance 250-1400): 9.8%
- Percent of subjects: Cavg in Range F & C(t) in Range F (total of too high and too low) (C(5), C(t) acceptance 250-1400): 12.2%
- Percent of Subjects: C(t) in range [1]: 90.2%
- Percent of Subjects: C(t) too high [1]: 0.0%
- Percent of Subjects: C(t) too low [1]: 9.8%
- Percent of Subjects: Cavg in range & C(t) in range [1]: 80.5%
- Percent of Subjects: Cavg in range & C(t) too high [1]: 0.0%
- Percent of Subjects: Cavg in range & C(t) too low [1]: 0.0%
- Percent of Subjects: Cavg too high & C(t) in range [1]: 7.3%
- Percent of Subjects: Cavg too high & C(t) too high [1]: 0.0%
- Percent of Subjects: Cavg too low & C(t) in range [1]: 2.4%
- Percent of Subjects: Cavg too low & C(t) too low [1]: 9.8%
- Percent of subjects: Cavg in Range F & C(t) in Range F (total of too high and too low) [1]: 9.8%
- Percent of Subjects: C(t) in range (C(6), C(t) acceptance 250-1100): 75.6%
- Percent of Subjects: C(t) too high (C(6), C(t) acceptance 250-1100): 14.6%
- Percent of Subjects: C(t) too low (C(6), C(t) acceptance 250-1100): 9.8%
- Percent of Subjects: Cavg in range & C(t) in range (C(6), C(t) acceptance 250-1100): 73.2%
- Percent of Subjects: Cavg in range & C(t) too high (C(6), C(t) acceptance 250-1100): 7.3%
- Percent of Subjects: Cavg in range & C(t) too low (C(6), C(t) acceptance 250-1100): 0.0%
- Percent of Subjects: Cavg too high & C(t) in range (C(6), C(t) acceptance 250-1100): 0.0%
- Percent of Subjects: Cavg too high & C(t) too high (C(6), C(t) acceptance 250-1100): 7.3%
- Percent of Subjects: Cavg too low & C(t) in range (C(6), C(t) acceptance 250-1100): 2.4%
- Percent of Subjects: Cavg too low & C(t) too low (C(6), C(t) acceptance 250-1100): 9.8%
- Percent of subjects: Cavg in Range F & C(t) in Range F (total of too high and too low) (C(6), C(t) acceptance 250-1100): 17.1%
- Percent of Subjects: C(t) in range (C(8), C(t) acceptance 200-1300): 95.1%
- Percent of Subjects: C(t) too high (C(8), C(t) acceptance 200-1300): 4.9%
- Percent of Subjects: C(t) too low (C(8), C(t) acceptance 200-1300): 0.0%
- Percent of Subjects: Cavg in range & C(t) in range (C(8), C(t) acceptance 200-1300): 80.5%
- Percent of Subjects: Cavg in range & C(t) too high (C(8), C(t) acceptance 200-1300): 0.0%
- Percent of Subjects: Cavg in range & C(t) too low (C(8), C(t) acceptance 200-1300): 0.0%
- Percent of Subjects: Cavg too high & C(t) in range (C(8), C(t) acceptance 200-1300): 2.4%
- Percent of Subjects: Cavg too high & C(t) too high (C(8), C(t) acceptance 200-1300): 4.9%
- Percent of Subjects: Cavg too low & C(t) in range (C(8), C(t) acceptance 200-1300): 12.2%
- Percent of Subjects: Cavg too low & C(t) too low (C(8), C(t) acceptance 200-1300): 0.0%
- Percent of subjects: Cavg in Range F & C(t) in Range F (total of too high and too low) (C(8), C(t) acceptance 200-1300): 4.9%
- Percent of Subjects: C(t) in range (C(12), C(t) acceptance 100-680): 92.7%
- Percent of Subjects: C(t) too high (C(12), C(t) acceptance 100-680): 4.9%
- Percent of Subjects: C(t) too low (C(12), C(t) acceptance 100-680): 2.4%
- Percent of Subjects: Cavg in range & C(t) in range (C(12), C(t) acceptance 100-680): 80.5%
- Percent of Subjects: Cavg in range & C(t) too high (C(12), C(t) acceptance 100-680): 0.0%
- Percent of Subjects: Cavg in range & C(t) too low (C(12), C(t) acceptance 100-680): 0.0%
- Percent of Subjects: Cavg too high & C(t) in range (C(12), C(t) acceptance 100-680): 2.4%
- Percent of Subjects: Cavg too high & C(t) too high (C(12), C(t) acceptance 100-680): 4.9%
- Percent of Subjects: Cavg too low & C(t) in range (C(12), C(t) acceptance 100-680): 9.8%
- Percent of Subjects: Cavg too low & C(t) too low (C(12), C(t) acceptance 100-680): 2.4%
- Percent of subjects: Cavg in Range F & C(t) in Range F (total of too high and too low) (C(12), C(t) acceptance 100-680): 7.3%
- Percent of Subjects: Cavg in range [2]: 80.5%
- Percent of Subjects: Cavg to low [2]: 12.2%
- Percent of Subjects: Cavg too high [2]: 7.3%
